Experiments:
LNCaP = test: Antiproliferative activity against human LNCaP cells assessed as reduction in cell viability by CellTitre-Glo assay; type: functional, cell-based
[1] = target: Protein cereblon/Histone acetyltransferase p300 (Homo sapiens) (UniProt Q09472+Q96SW2); test: Protac activity at E3 ubiquitin ligase/P300 in human LNcaP cells assessed as degradation of P300 at 10 nM by immunoblotting analysis relative to control; type: cell-based
Chain of Protein cereblon/Histone acetyltransferase p300 (Homo sapiens) (Q09472 2-2414 limits assumed): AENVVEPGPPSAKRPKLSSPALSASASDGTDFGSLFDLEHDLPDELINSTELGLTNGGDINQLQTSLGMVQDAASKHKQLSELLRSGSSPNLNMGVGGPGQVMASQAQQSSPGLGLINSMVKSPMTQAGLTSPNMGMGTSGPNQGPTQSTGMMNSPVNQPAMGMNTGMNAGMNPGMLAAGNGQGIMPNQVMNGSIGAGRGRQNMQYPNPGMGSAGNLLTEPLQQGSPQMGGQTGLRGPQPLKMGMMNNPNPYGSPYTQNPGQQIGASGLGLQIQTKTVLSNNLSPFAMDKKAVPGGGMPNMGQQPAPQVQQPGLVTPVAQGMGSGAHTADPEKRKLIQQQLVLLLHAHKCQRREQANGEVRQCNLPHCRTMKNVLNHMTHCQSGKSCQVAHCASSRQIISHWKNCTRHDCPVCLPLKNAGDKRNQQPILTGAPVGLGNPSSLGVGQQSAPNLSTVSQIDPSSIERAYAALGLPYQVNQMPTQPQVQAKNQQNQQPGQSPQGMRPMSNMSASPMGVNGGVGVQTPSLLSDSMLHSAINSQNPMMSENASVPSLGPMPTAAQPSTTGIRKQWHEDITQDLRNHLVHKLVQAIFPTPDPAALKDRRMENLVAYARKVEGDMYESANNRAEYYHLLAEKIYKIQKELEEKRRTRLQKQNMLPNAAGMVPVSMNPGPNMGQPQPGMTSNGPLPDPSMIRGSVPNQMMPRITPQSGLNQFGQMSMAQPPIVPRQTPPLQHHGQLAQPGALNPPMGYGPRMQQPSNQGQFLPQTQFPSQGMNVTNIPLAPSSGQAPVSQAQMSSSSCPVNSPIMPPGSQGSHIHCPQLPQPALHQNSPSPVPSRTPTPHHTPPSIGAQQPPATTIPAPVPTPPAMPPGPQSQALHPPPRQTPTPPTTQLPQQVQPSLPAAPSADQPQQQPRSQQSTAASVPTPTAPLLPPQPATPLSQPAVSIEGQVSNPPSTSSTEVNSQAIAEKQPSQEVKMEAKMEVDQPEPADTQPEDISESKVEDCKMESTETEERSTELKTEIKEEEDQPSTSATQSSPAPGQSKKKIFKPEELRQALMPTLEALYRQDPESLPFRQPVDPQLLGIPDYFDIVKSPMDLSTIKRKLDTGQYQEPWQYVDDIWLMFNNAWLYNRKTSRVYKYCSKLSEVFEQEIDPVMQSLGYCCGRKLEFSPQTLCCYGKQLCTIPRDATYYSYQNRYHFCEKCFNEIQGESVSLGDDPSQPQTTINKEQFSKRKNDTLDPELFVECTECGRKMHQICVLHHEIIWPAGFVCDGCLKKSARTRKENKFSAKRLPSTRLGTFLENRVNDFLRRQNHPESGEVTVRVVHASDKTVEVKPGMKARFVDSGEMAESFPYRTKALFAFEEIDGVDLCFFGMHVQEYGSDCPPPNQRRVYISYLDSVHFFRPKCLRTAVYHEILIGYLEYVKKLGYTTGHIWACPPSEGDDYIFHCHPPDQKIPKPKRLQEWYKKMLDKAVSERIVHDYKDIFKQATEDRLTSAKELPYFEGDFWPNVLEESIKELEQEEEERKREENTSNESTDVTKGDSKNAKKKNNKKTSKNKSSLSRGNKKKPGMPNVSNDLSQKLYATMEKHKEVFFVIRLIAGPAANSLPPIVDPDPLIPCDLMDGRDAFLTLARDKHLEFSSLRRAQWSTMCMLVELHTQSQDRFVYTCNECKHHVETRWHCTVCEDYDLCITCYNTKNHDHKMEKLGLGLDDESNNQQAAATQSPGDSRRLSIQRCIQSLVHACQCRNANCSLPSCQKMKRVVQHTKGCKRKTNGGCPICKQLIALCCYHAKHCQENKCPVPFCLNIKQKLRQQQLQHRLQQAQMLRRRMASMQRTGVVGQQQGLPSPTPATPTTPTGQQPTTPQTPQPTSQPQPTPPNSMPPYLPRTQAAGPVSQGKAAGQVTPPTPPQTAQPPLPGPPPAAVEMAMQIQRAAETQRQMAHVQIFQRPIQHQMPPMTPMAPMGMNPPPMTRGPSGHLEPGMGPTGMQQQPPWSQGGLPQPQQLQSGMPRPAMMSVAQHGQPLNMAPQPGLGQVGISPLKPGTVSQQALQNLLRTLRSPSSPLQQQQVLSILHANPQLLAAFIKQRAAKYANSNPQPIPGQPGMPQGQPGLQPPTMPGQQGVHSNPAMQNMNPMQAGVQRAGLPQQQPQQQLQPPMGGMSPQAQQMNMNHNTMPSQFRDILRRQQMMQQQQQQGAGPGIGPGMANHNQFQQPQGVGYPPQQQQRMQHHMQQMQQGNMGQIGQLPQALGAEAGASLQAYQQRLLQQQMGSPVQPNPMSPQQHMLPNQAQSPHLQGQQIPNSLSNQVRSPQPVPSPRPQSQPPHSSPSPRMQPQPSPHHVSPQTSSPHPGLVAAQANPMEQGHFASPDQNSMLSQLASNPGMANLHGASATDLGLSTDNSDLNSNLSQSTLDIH
Chain of Protein cereblon/Histone acetyltransferase p300 (Homo sapiens) (Q96SW2 whole entry partner): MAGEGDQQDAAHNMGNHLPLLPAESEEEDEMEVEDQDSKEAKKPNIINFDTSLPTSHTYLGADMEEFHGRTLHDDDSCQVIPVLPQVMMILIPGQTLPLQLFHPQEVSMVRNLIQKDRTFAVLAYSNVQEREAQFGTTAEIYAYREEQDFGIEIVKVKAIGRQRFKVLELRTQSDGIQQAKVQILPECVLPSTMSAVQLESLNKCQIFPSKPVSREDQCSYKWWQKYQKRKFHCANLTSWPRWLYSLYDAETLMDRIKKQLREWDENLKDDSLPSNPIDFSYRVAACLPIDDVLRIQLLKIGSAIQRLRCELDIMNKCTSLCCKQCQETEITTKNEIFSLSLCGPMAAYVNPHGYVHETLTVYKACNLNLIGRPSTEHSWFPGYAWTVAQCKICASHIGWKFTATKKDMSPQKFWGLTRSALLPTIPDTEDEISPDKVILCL

Structure (SMILES) | IC50 (LNCaP) [nM] | Activity [1] [%]
CC(=O)N1CCc2c(c(N3CCCc4cc(-c5cnn(C)c5)c(C(F)F)cc43)nn2C2CCN(CCN3CCOC(CNc4cccc5c4C(=O)N(C4CCC(=O)NC4=O)C5=O)C3)CC2)C1 (centres undefined) | 0.1 | > 80
CC(=O)N1CCc2c(c(N3CCCc4cc(-c5cnn(C)c5)c(C(F)F)cc43)nn2C2CCN(CCN3CCC(CCc4ccc5c(c4)n(C)c(=O)n5C4CCC(=O)NC4=O)CC3)CC2)C1 (centres undefined) | 0.3 | > 80
CNC(=O)N1CCc2c(c(N3CCCc4cc(-c5cnn(C)c5)c(C(F)F)cc43)nn2C2CCN(C(=O)CCCCCNc3cccc4c3C(=O)N(C3CCC(=O)NC3=O)C4=O)CC2)C1 (centres undefined) | 0.4 | > 80
CC(=O)N1CCc2c(c(N3CCCc4cc(-c5cnn(C)c5)c(C(F)F)cc43)nn2C2CCN(C(=O)CCCN3CCN(Cc4ccc5c(c4)n(C)c(=O)n5C4CCC(=O)NC4=O)CC3)CC2)C1 (centres undefined) | 0.3 | > 80
CC(=O)N1CCc2c(c(N3CCCc4cc(-c5cnn(C)c5)c(C(F)F)cc43)nn2C2CCN(CCCC3CCN(c4cccc5c4C(=O)N(C4CCC(=O)NC4=O)C5=O)CC3)CC2)C1 (centres undefined) | 0.8 | > 80

More lines, in order of falling IC50 (LNCaP), values ahead:

IC50 (LNCaP) [nM] | Activity [1] [%] | Structure (SMILES)
44.5 | < 50 | CC(=O)N1CCc2c(c(N3CCCc4cc(-c5cnn(C)c5)c(C(F)F)cc43)nn2C2CCN(C(=O)CCCCCNc3cccc4c3C(=O)N(C3CCC(=O)NC3=O)C4=O)CC2)C1 (centres undefined)
33.1 | < 20 | CC(=O)N1CCc2c(c(N3CCCc4cc(-c5cnn(C)c5)c(C(F)F)cc43)nn2C2CCN(C(=O)CN3CCC(CCc4cccc5c4n(C)c(=O)n5C4CCC(=O)NC4=O)CC3)CC2)C1 (centres undefined)
0.9 | > 80 | CNC(=O)N1CCc2c(c(N3CCCc4cc(-c5cnn(C)c5)c(C(F)F)cc43)nn2C2CCN(C(=O)CCCCCn3c(=O)n(C4CCC(=O)NC4=O)c4ccccc43)CC2)C1 (centres undefined)
0.8 | > 80 | CNC(=O)N1CCc2c(c(N3CCCc4cc(-c5cnn(C)c5)c(C(F)F)cc43)nn2C2CCN(C(=O)CCCCCCCNc3cccc4c3C(=O)N(C3CCC(=O)NC3=O)C4=O)CC2)C1 (centres undefined)
0.7 | > 80 | CC(=O)N1CCc2c(c(N3CCCc4cc(-c5cnn(C)c5)c(C(F)F)cc43)nn2C2CCN(C(=O)CCCCCCCNc3cccc4c3C(=O)N(C3CCC(=O)NC3=O)C4=O)CC2)C1 (centres undefined)
0.1 | > 80 | CC(=O)N1CCc2c(c(N3CCCc4cc(-c5cnn(C)c5)c(C(F)F)cc43)nn2C2CCN(CCN3CCC(CCc4cccc5c4n(C)c(=O)n5C4CCC(=O)NC4=O)CC3)CC2)C1 (centres undefined)
0.1 | > 80 | CC(=O)N1CCc2c(c(N3CCCc4cc(-c5cnn(C)c5)c(C(F)F)cc43)nn2C2CCN(CCN3CCN(C#Cc4ccc5c(c4)n(C)c(=O)n5C4CCC(=O)NC4=O)CC3)CC2)C1 (centres undefined)

Reference: ChEMBL document CHEMBL5126617, “Application of Degradation of Cyclic-AMP Response Element Binding Protein for the Potential Treatment of Cancer” (ACS Med Chem Lett, 2022)
